{
  "source": "ChEMBL document CHEMBL5257111",
  "about": "“Ribosome-targeting antibiotics and resistance via ribosomal RNA methylation” (RSC Med Chem, 2023)",
  "key": {"[1]": {"target": "rRNA adenine N-6-methyltransferase (Bacillus subtilis, UniProt P13956)", "sequence (P13956 whole entry)": "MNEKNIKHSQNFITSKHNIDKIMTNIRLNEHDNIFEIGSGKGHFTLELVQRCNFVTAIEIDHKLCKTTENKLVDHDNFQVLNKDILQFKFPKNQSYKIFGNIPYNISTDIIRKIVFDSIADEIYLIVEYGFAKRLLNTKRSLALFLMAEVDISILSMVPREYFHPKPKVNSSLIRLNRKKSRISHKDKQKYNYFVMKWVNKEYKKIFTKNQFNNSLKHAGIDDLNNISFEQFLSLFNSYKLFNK", "experiment": "Inhibition of Bacillus subtilis ErmC' methyltransferase"}, "Escherichia coli [2]": {"tested_on": "Escherichia coli", "experiment": "Antibacterial activity against Escherichia coli ATCC 8730 assessed as bacterial growth inhibition", "format": "functional"}, "Klebsiella pneumoniae": {"tested_on": "Klebsiella pneumoniae", "experiment": "Antibacterial activity against Klebsiella pneumoniae ATCC 10031 assessed as reduction in microbial growth", "format": "functional"}, "Klebsiella aerogenes": {"tested_on": "Klebsiella aerogenes", "experiment": "Antibacterial activity against Enterobacter aerogenes ATCC 13048 assessed as reduction in bacterial growth", "format": "functional"}, "Enterobacter cloacae": {"tested_on": "Enterobacter cloacae", "experiment": "Antibacterial activity against Enterobacter cloacae ATCC 29893 assessed as reduction in microbial growth", "format": "functional"}, "Citrobacter amalonaticus": {"tested_on": "Citrobacter amalonaticus", "experiment": "Antibacterial activity against Citrobacter amalonaticus assessed as reduction in microbial growth", "format": "functional"}, "Escherichia coli [3]": {"tested_on": "Escherichia coli", "experiment": "Antimicrobial activity against Escherichia coli ATCC 8739 assessed as reduction in bacterial growth", "format": "functional"}, "Escherichia coli [4]": {"tested_on": "Escherichia coli", "experiment": "Antimicrobial activity against Escherichia coli ATCC 25922 assessed as bacterial growth inhibition", "format": "functional"}, "Acinetobacter baumannii": {"tested_on": "Acinetobacter baumannii", "experiment": "Antibacterial activity against Acinetobacter baumannii assessed as reduction in bacterial growth by broth microdilution method", "format": "functional"}, "[5]": {"target": "T1, Catechol O-methyltransferase (Homo sapiens, UniProt P21964)", "T1 sequence (P21964 whole entry)": "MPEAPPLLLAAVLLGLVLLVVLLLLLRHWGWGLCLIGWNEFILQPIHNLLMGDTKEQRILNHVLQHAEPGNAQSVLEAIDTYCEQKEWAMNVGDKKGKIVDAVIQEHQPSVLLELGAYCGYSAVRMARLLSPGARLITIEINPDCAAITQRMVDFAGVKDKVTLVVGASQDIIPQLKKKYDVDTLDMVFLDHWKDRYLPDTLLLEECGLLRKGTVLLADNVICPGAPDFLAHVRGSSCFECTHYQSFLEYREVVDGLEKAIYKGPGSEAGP", "experiment": "Inhibition of S-COMT (unknown origin)"}, "[6]": {"experiment": "Binding affinity to Enterococcus faecalis ErmAM methyltransferase assessed as inhibition constant"}},
  "data": [
    {"molecule": "C(=N\\Nc1ncnc2c1nnn2Cc1ccccc1)/c1ccccc1", "values": [
      {"measurement": "IC50", "setting": "[1]", "value": 250, "unit": "µM"}
    ]},
    {"molecule": "NC[C@H]1O[C@H](O[C@H]2[C@H](O)[C@@H](O[C@H]3O[C@H](CO)[C@@H](O)[C@H](N)[C@H]3O)[C@H](N)C[C@@H]2N)[C@H](N)C[C@@H]1O", "note": "[TOBRAMYCIN]", "values": [
      {"measurement": "MIC", "setting": "Escherichia coli [2]", "value": "> 512", "unit": "µg/mL"},
      {"measurement": "MIC", "setting": "Klebsiella pneumoniae", "value": "> 512", "unit": "µg/mL"},
      {"measurement": "MIC", "setting": "Klebsiella aerogenes", "value": "> 512", "unit": "µg/mL"},
      {"measurement": "MIC", "setting": "Enterobacter cloacae", "value": "> 512", "unit": "µg/mL"},
      {"measurement": "MIC", "setting": "Citrobacter amalonaticus", "value": "> 512", "unit": "µg/mL"}
    ]},
    {"molecule": "NC[C@@H]1O[C@H](O[C@H]2[C@@H](O)[C@H](O[C@@H]3[C@@H](O)[C@H](N)C[C@H](N)[C@H]3O[C@H]3O[C@H](CN)[C@@H](O)[C@H](O)[C@H]3N)O[C@@H]2CO)[C@H](N)[C@@H](O)[C@@H]1O", "note": "[FRAMYCETIN]", "values": [
      {"measurement": "MIC", "setting": "Escherichia coli [3]", "value": "> 256", "unit": "µg/mL"}
    ]},
    {"molecule": "Cc1ccc(Sc2cc(C)c(C#N)c(Sc3ccc(C)cc3)n2)cc1", "values": [
      {"measurement": "IC50", "setting": "[1]", "value": 180, "unit": "µM"}
    ]},
    {"molecule": "GENTAMICIN", "values": [
      {"measurement": "MIC", "setting": "Escherichia coli [2]", "value": "> 512", "unit": "µg/mL"},
      {"measurement": "MIC", "setting": "Klebsiella pneumoniae", "value": "> 512", "unit": "µg/mL"},
      {"measurement": "MIC", "setting": "Escherichia coli [4]", "value": "> 256", "unit": "µg/mL"},
      {"measurement": "MIC", "setting": "Klebsiella aerogenes", "value": "> 512", "unit": "µg/mL"},
      {"measurement": "MIC", "setting": "Enterobacter cloacae", "value": "> 512", "unit": "µg/mL"},
      {"measurement": "MIC", "setting": "Citrobacter amalonaticus", "value": "> 512", "unit": "µg/mL"}
    ]},
    {"molecule": "NCC[C@H](O)C(=O)N[C@@H]1C[C@H](N)[C@@H](O[C@H]2O[C@H](CN)[C@@H](O)[C@H](O)[C@H]2O)[C@H](O)[C@H]1O[C@H]1O[C@H](CO)[C@@H](O)[C@H](N)[C@H]1O", "note": "[AMIKACIN]", "values": [
      {"measurement": "MIC", "setting": "Escherichia coli [2]", "value": "> 512", "unit": "µg/mL"},
      {"measurement": "MIC", "setting": "Klebsiella pneumoniae", "value": "> 512", "unit": "µg/mL"},
      {"measurement": "MIC", "setting": "Acinetobacter baumannii", "value": "> 256", "unit": "µg/mL"},
      {"measurement": "MIC", "setting": "Klebsiella aerogenes", "value": "> 512", "unit": "µg/mL"},
      {"measurement": "MIC", "setting": "Enterobacter cloacae", "value": "> 512", "unit": "µg/mL"},
      {"measurement": "MIC", "setting": "Citrobacter amalonaticus", "value": "> 512", "unit": "µg/mL"}
    ]},
    {"molecule": "O=C(c1c[nH]c(=O)[nH]1)N1CCN(c2ccc(C(F)(F)F)cn2)CC1", "values": [
      {"measurement": "IC50", "setting": "[1]", "value": 100, "unit": "µM"}
    ]},
    {"molecule": "COc1ccc(C(=O)Nc2cccc(-c3nc4ccccc4[nH]3)c2)cc1", "values": [
      {"measurement": "IC50", "setting": "[5]", "value": 73, "unit": "µM"}
    ]},
    {"molecule": "O=C(Nc1cccc(-c2nc3ccccc3[nH]2)c1)c1ccccc1", "values": [
      {"measurement": "IC50", "setting": "[5]", "value": 26, "unit": "µM"}
    ]},
    {"molecule": "O=C(c1cnc(Nc2ncccn2)s1)N1CCN(c2ccc(C(F)(F)F)cn2)CC1", "values": [
      {"measurement": "IC50", "setting": "[1]", "value": 110, "unit": "µM"}
    ]},
    {"molecule": "Nc1nc(NC2Cc3ccccc3C2)nc(N2CCC(C(=O)NCCc3c[nH]c4ccccc34)CC2)n1", "values": [
      {"measurement": "Ki", "setting": "[6]", "value": 2, "unit": "µM"}
    ]},
    {"molecule": "Nc1cccc(-c2nc(N)nc(NC3Cc4ccccc4C3)n2)c1", "values": [
      {"measurement": "Ki", "setting": "[6]", "value": 4, "unit": "µM"}
    ]},
    {"molecule": "O=C1c2ccccc2C(=O)N1CN(CCCn1ccnc1)CN1C(=O)c2ccccc2C1=O", "values": [
      {"measurement": "IC50", "setting": "[1]", "value": 300, "unit": "µM"}
    ]},
    {"molecule": "Cc1ccc(Nc2ncc(C(=O)N3CCN(c4ccc(C(F)(F)F)cn4)CC3)s2)nc1", "values": [
      {"measurement": "IC50", "setting": "[1]", "value": 116, "unit": "µM"}
    ]},
    {"molecule": "NC[C@H]1O[C@H](O[C@H]2[C@H](O)[C@@H](O[C@H]3O[C@H](CO)[C@@H](O)[C@H](N)[C@H]3O)[C@H](N)C[C@@H]2N)[C@H](O)[C@@H](O)[C@@H]1O", "note": "[KANAMYCIN]", "values": [
      {"measurement": "MIC", "setting": "Escherichia coli [4]", "value": "> 256", "unit": "µg/mL"}
    ]},
    {"molecule": "OC[C@H]1O[C@@H](n2cnc3c(NC4CCCC4)ncnc32)[C@H](O)[C@@H]1O", "note": "[N6-CYCLOPENTYLADENOSINE]", "values": [
      {"measurement": "IC50", "setting": "[1]", "value": 80, "unit": "µM"}
    ]}
  ]
}
